Assay results taken from patent US20070142417A1, “Substantially Pure 2-{[2-(2-Methylamino-Pyrimidin-4-YL)-1H-Indole-5-Carbonyl]-Amino}-3-Phenylpyridin-2-YL-Amino)-Propionic Acid as an IkB Kinase Inhibitor” (AVENTIS PHARMACEUTICALS INC, priority 2005, published 2007).
Where two headings read alike, the source gives them in different places.

What was measured:
[1] = molecular target: T1, IκB kinase (IKK enzyme preparation) (Homo sapiens, UniProt O14920); assay: IKK-Enzyme ELISA; assay type: biochemical
T1 sequence (O14920 1-756): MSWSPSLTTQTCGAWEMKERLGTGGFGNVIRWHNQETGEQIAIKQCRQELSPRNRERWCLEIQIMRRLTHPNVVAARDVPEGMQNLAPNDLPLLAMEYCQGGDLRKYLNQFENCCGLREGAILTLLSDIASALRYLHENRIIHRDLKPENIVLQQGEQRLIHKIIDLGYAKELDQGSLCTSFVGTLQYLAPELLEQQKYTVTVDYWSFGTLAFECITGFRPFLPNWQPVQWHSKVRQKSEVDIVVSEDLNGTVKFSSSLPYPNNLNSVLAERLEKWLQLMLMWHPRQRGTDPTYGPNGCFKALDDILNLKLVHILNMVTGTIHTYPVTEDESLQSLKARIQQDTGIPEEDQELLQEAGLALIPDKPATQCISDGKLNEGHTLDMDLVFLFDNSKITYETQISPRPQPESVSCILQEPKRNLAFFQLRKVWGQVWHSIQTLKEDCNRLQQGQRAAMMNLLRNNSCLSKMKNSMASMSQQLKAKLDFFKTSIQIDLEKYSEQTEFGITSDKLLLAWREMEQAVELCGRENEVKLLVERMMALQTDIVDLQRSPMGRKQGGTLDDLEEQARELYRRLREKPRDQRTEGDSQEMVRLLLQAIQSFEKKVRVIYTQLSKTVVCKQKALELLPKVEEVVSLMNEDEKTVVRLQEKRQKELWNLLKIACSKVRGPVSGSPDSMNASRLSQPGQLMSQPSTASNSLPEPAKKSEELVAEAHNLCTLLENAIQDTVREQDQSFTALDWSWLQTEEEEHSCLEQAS
Method: The assay buffer has the following composition (50 mM HEPES, 10 mM MgCl2, 10 mM β-Glycerophosphate, 2 μM Microcystin-LR, 0.01% NP-40, 5 mM DTT).
The IKK enzyme preparation was diluted 1:50 (in-house-made preparation) plus test compound in DMSO (final concentration in well: 2%).
The assay procedures were as follows:
Incubation of enzyme and compound for 30 min;
pSer36-IkB Peptide (Substrate): 40 μM;
Incubation for 45 min and Addition of anti-pSer32-pSer36-IkB Peptid-antibody;
Incubation for 45 min and transfer to protein-G-coated plate;
Incubation for 90 min followed by 3× washing;
Addition of streptavidin-HRP, then incubation 45 min followed by 6× washing;
Addition of TMB and Incubation for 15 min; and
Stop solution and read using photometer.

[2] = test system: IL-1β-induced NF-κB activation; assay: NF-κB-Luciferase Reporter Mouse Model, dose response determination; assay type: in vivo, Balb/c female mice; settings: for effect on IL-1β-induced NF-κB activity: intranasal dosing 0.3-10 mg/kg, FIGS. 1 and 2
Method: A. NF-κB-Luciferase Reporter Mouse Model Methods employed for mouse imaging studies with Compound (A) and Compound (B). General Description Compounds were used as nanomilled suspensions in 0.2% Tween-80 in PBS and were dosed through the intranasal route. Intranasal drug and inflammatory stimulus administration: Mice are anesthetized in 4% is isoflurane gas in oxygen. A volume of 25 μl is applied to each nostril and the mice are allowed to breathe in the suspension. Balb/c female mice at 6-8 weeks of age were used for studies in which AdV-NFκB-luciferase reporter was instilled in the lung. To imagine mice, they are anesthetized with 4% isoflurane in oxygen. Luciferin is delivered i.p. at a dose of 150 mg/kg. 10 minutes after luciferin injection, the animals are imaged in an IVIS200 system (Xenogen) with a one-minute bioluminescent exposure. Alternatively, 10-15 minutes post luciferin administration, mice are rapidly euthanized and internal tissues are dissected and imaged ex vivo. B. Dose Response Determination 1-2×10^8 pfu adenovirus-NFκB-luciferase is delivered intranasally 3-5 days prior to stimulation (i.n.) with an inflammatory stimulus (IL-1β or LPS). Animals are dosed i.n. with 0.3-10 mg/kg of compound 30 min—1 h prior to challenge with 0.5 μg LPS or 50 ng IL-1β. Animals are then imaged once or several times from 1 h to 24 h after the inflammatory stimulus is administered.

[3] = Pharmacokinetic procedures: compound levels in lung and plasma after intra-tracheal instillation; assay type: in vivo, Male Hartley guinea pigs; settings: for systemic exposure after intratracheal administration: i.t. administration; for Kp at 1 h: male, Hartley, guinea pig, lung and plasma, other: intra-tracheal instillation, i.t. instillation 0.01-0.3 mg/kg, 1 h after dosing, depending on the dose, read-out: lung to plasma ratio
Method: C. Pharmacokinetic Procedures
Male Hartley guinea pigs (450-550 g) previously sensitized with ovalbumin were used for the determination of compound levels in lung and plasma. Nanomilled suspensions of Compound (A) and Compound (B) were dosed via intra-tracheal instillation at 0.01, 0.03, 0.1 and 0.3 mg/kg. One hour after dosing, animals were euthanized (Euthasol), and 1 mL blood samples were obtained by cardiac puncture and collected into heparin-coated syringes. Plasma was separated from the cellular component of the blood by centrifugation, and stored at −80° C. until assayed. Lungs were dissected out, blotted dry, weighted and stored in 20-25 mL glass vials individually at −80° C. until assayed for compound levels.
The lung to plasma ratio for Compound (A) ranges from 143 to 284 (depending on the dose) whereas the lung to plasma ratio for Compound (B) ranges from 13 to 44 (depending on the dose). These ratios were obtained by dividing the lung compound levels to that of the corresponding plasma levels at the same dose.

[4] = read-out: IC50 (nM) 50 μM ATP, 50 μM ATP
[5] = read-out: IC50 (nM) 1 mM ATP, 1 mM ATP

SMILES	IC50 [1, 4] [nM]	IC50 [1, 5] [nM]	ED50 ([2]; Mus musculus, intranasal nanomilled suspension, 0.3-10 mg/kg, IL-1β challenge, lung bioluminescence, read-out: estimated ED50, IL-1β-induced NF-κB activation) [mg/kg]	effect on IL-1β-induced NF-κB activity [2]	systemic exposure after oral administration [3]	systemic exposure after intratracheal administration [3]	Kp at 1 h [3]	lung exposure after i.t. instillation ([3]; 0.3 mg/kg i.t., FIG. 3)
CNc1nccc(-c2cc3cc(C(=O)N[C@@H](CN(c4ccccc4)c4ccccn4)C(=O)OC)ccc3[nH]2)n1 [(C)]	16.8	378	–	–	–	–	–	–
CNc1nccc(-c2cc3cc(C(=O)N[C@@H](CN(c4ccccc4)c4ncccn4)C(=O)O)ccc3[nH]2)n1 [(D)]	–	3.8	–	–	–	–	–	–
CNc1nccc(-c2cc3cc(C(=O)N[C@@H](CN(c4ccccc4)c4ccccn4)C(=O)O)ccc3[nH]2)n1 [Compound (A), 2-{[2-(2-Methylamino-pyrimidin-4-yl)-1H-indole-5-carbonyl]-amino}-3-(phenyl-pyridin-2-yl-amino)-propionic acid]	0.4	0.08	~1	inhibited in a dose-dependent manner	low systemic exposure	low systemic exposure	143 to 284	–
CNc1nccc(-c2cc3cc(C(=O)N[C@@H](CN(c4ccccc4)c4ccccn4)C(=O)NOC)ccc3[nH]2)n1 [Compound (B)]	0.8	56.4	–	inhibited in a dose-dependent manner	highly systemically available	highly systemically distributed	13 to 44	low relative to Compound (A)
